The values that follow are results of earlier work, collected in patent US6811791B2, “Method and concentrated composition for insect and animal control” (priority 2001, dated 2004).

For this data set the following is noted: classified by the EPA.

`CNC(=O)CSP(=S)(OC)OC` [Dimethoate, dimethoate]: the EPA carcinogen classification entry is listed as “group 3 carcinogen”.
